Measured values taken from patent US20260364138A1, “ENRICHED ASPARAGUS RACEMOSUS ROOT COMPOSITION AND PROCESS FOR PREPARATION THEREOF” (LAILA NUTRA PRIVATE LIMITED, priority 2023, published 2026).

How the values were obtained:
[1] = test system: Cyclophosphamide-induced primary ovarian insufficiency in Sprague Dawley rats; experiment: Cyclophosphamide-induced primary ovarian insufficiency in female Sprague Dawley rats, total follicular count; conditions: rat, in vivo
Procedure: Evaluation of Asparagus racemosus enriched extract compositions supplementation on total follicular count of female Sprague Dawley rats: Ovarian follicles contain oocytes and surrounded by granulosa cells. Four different types of follicles are observed in ovaries based on their development stages: primordial, primary, secondary, and tertiary (antral). The number of primordial follicles, which is the true ovarian reserve, is determined in the fetus and declines throughout life. However, the primordial follicles cannot be visualized by ultrasound due to their small size (<0.05 mm diameter). The antral or Graafian follicles are more easily identifiable by ultrasound when they reach 2 mm in diameter. It is recommended that a follicular count needs to be performed in the early follicular phase of the menstrual cycle. However, considering the intracycle fluctuation of ovarian reserve, a follicular count may be performed at any point in the menstrual cycle. […]
Example 28: In-vivo efficacy of AR-1 and Comp-1 in mitigating Cyclophosphamide-induced primary ovarian insufficiency in Sprague Dawley rats. […] Twenty randomly selected fields were analysed for primordial, primary, antral, […], and atretic follicles, and the average of total number of follicles present in each tissue section was calculated.

[2] = test system: Letrozole-induced PCOS in female Sprague Dawley rats; experiment: Oral glucose tolerance test (OGTT) in letrozole-induced PCOS rats; type: in vivo; conditions: mean ± SD, n = 7, 20 mg/kg daily days 22-48 after letrozole induction, letrozole group 1 mg/kg without test item, day 49
From the text: Evaluation of Asparagus racemosus synergistic enriched extract compositions (comp-26, comp-27, comp-28 and 90% aqueous ethanol extract (AR-2) supplementation in letrozole-induced PCOS in female Sprague Dawley rats: Oral glucose tolerance test (OGTT): OGTT measures circulatory glucose levels following glucose ingestion, and this test is widely used as an indicator of insulin resistance. PCOS is known to cause metabolic dysfunctions, including insulin resistance. Letrozole-induced rats show impaired glucose tolerance and increased blood glucose in circulation, which closely mimics the clinical features of glucose intolerance or insulin resistance in PCOS.
Area Under the Curve (AUC) was calculated using serum glucose concentration Vs. time (in min). The AUC value was increased in letrozole-induced (G2) rats when compared with the Vehicle control (G1) rats, indicating impaired glucose tolerance or increased insulin resistance.
(§1) Following a 7-day acclimatization period, female Sprague Dawley rats (age: 10-12 weeks, body weight 250-300 g) were randomly assigned to six groups (n=7): vehicle control (G1), Letrozole (G2; 1 mg/kg), AR-2 (G3; 20 mg/kg), Comp-26 (G4; 20 mg/kg), Comp-27 (G5; 20 mg/kg), and Comp-28 (G6; 20 mg/kg).
The study was performed in two phases i.e., the induction and supplementation phases. […]

[3] = test system: Letrozole-induced PCOS in female Sprague Dawley rats; experiment: Serum 17β-estradiol in letrozole-induced PCOS rats; type: in vivo; conditions: mean ± SD, n = 7; 20 mg/kg daily after letrozole induction; letrozole group 1 mg/kg; day 48
Procedure: as §1
(§2) The study was performed in two phases i.e., the induction and supplementation phases. In the induction phase, all the animals, except for G1, were gavaged with letrozole to induce PCOS for 21 days. In the supplementation phase (from days 22 to 48), all rats were supplemented once daily with either the vehicle or one of the test items. An oral glucose tolerance test (OGTT) was performed on day 49 in overnight fasted rats. Blood samples were collected on day 48. The serum was separated by centrifuging the blood samples at 3200×g for 15 minutes at 4 °C and stored at −80 °C in aliquots for biomarker analysis. On day 50, all rats were euthanized using CO2 asphyxiation, and their ovaries were collected. The ovaries were fixed in 10% normal buffered formalin for histopathology examination. The fixed tissues were paraffin-embedded, sectioned (5-7 μm) using a microtome, and stained with hematoxylin-eosin following the standard protocols. The stained tissue sections were examined at 10× magnification under a light microscope (Carl Zeiss, Germany).

[4] = test system: Letrozole-induced PCOS in female Sprague Dawley rats; experiment: Serum testosterone in letrozole-induced PCOS rats; type: in vivo; conditions: mean ± SD, n = 7; 20 mg/kg daily after letrozole induction; letrozole group 1 mg/kg; day 48
Procedure: as §1, §2

[5] = test system: estrogen receptor alpha phosphorylated at Serine 118 position (pER-α); experiment: Evaluation of estrogen-receptor alpha (ER-α) phosphorylation by Western blot assay (normalized pER-α expression) in MCF-7 cells; type: cell-based, Human; conditions: 0.2 μg/mL, MCF-7, 4 h; for pER-α expression (normalized): Table 3 (vehicle control 0.28); for activation at 0.2 µg/mL: Homo sapiens, MCF7, read-out: % increase of pER-α (from vehicle control)
Procedure: The four compounds of Asparagus racemosus root Shatavarin I, dehydroshatavarin I, shatavarin IV, and shatavarin IX, and their combinations were evaluated for their ability to enhance the pER-α (estrogen receptor alpha phosphorylated at Serine 118 position) expression in a human breast tumor cell line, MCF-7, and the results are presented in Table 3. pER-α represents the active form of the hormone receptor.
Human MCF-7 cells (ATCC Cat #HTB-22; 5×10^5 cells/well in 3 mL) were seeded in 6-well cell culture plates and maintained in DMEM medium containing 10% FBS at 37 °C in a humidified atmosphere of 5% CO2. After 48 hours of seeding, cells were washed twice with serum-free DMEM medium (without phenol red) and maintained in the same media for another 24 hours. Cells were treated with different test samples (0.2 μg/mL) in serum-free DMEM medium and incubated for 4 hours at 37 °C in a CO2 incubator. The untreated cells served as a vehicle control.
Western blot: After the incubation, cell culture plates were placed on an ice tray and washed twice with cold 1×PBS. Eighty microliters of lysis buffer (10 mM Tris-HCl pH 7.4, 150 mM NaCl, 1 mM EDTA, 1 mM [COMPOUND LEFT OUT], 10 μg/mL Aprotinin, 10 μg/mL Leupeptin, 1% Triton X-100, 1 mM NaF, 1 mM Na3VO4, 0.5% Sodium deoxycholate, and 1 μM Pepstatin) was added to each well and sonicated for 30 seconds. Following homogenization, samples were centrifuged at 16128×g for 10 minutes at 4 °C to sediment unbroken cells and nuclei. Supernatant was collected, and protein was quantified using a Pierce BCA protein assay kit (Thermo Scientific Cat #23225). SDS-PAGE was performed for the protein samples, and resolved proteins were transferred onto nitrocellulose membrane using the wet blotting method. Briefly, 10 μg of protein was loaded onto acrylamide gel (7.5% resolving) and ran at 100V for approximately 1 hour 40 minutes. At the end of the run, proteins were transferred to the nitrocellulose membrane by placing transfer system at 4 °C chamber (100V for 2 hours). After the transfer, the membrane was washed in 0.1M Tris-buffered saline containing 0.05% Tween20 (TBST) and blocked in Superblock blocking buffer (Thermo Scientific Cat #37535) with constant agitation for 30 minutes. The membrane was incubated with primary antibodies recognizing phospho-ER-α (Phosphorylation site: Ser118) in TBST for 16 hours at 4 °C with agitation. The membrane was washed three times and incubated with peroxidase affiniPure goat anti-rabbit secondary antibody (Jackson ImmunoResearch Cat #111-035-045; 1:10000 dilution) for 1 hour at room temperature with agitation, followed by three times of washing in TBST for 5 minutes each. Immunoreactive bands were detected using a chemiluminescent substrate (Thermo Scientific Cat #34080) and images were captured using Bio-Rad Molecular imager (Model: ChemiDOC MP). Membrane was stripped of the phospho-ER-α antibody and re-probed with […] antibody (Sigma Chemical Co., USA; 1:10000 dilution) by incubating at room temperature for 2 hours and images were captured. The intensities of phospho-ER-α and actin protein bands were calculated using Carestream MI software and normalized. The normalized pER-α expression (in arbitrary units) was measured using the following formula: […]

Molecule | pER-α expression (normalized) [5] [arbitrary units] | activation at 0.2 µg/mL ([5]; markers, Table 3) [%] | also measured
O=P1(N(CCCl)CCCl)NCCCO1 (stereo not shown) [Cyclophosphamide] | – | – | Average total follicular count [1]: 5.63 per section
N#Cc1ccc(C(c2ccc(C#N)cc2)n2cncn2)cc1 [Letrozole] | – | – | AUC (serum glucose, OGTT) [2]: 21030 ± 4007 mg/dL/min; AUC (serum glucose, OGTT) ([2]; listed as letrozole): increased; 17β-Estradiol concentration (serum) [3]: 32.97 ± 13.89 pg/mL; Testosterone concentration (serum) [4]: 3.18 ± 1.16 pg/mL
CC1CCC2(OC1)OC1CC3C4CCC5CC(OC6OC(CO)C(OC7OC(C)C(O)C(O)C7O)C(O)C6OC6OC(CO)C(O)C(O)C6O)CCC5(C)C4CCC3(C)C1C2C (stereo not shown) [Shatavarin IV] | 0.40 | 42.9 | –
CC1CCC2(OC1)OC1CC3C4CCC5CC(OC6OC(CO)C(OC7OC(CO)C(O)C(O)C7O)C(O)C6OC6OC(CO)C(O)C(O)C6O)CCC5(C)C4CCC3(C)C1C2C (stereo not shown) [Shatavarin IX] | 0.38 | 35.7 | –
CC(CCC1(O)OC2CC3C4CCC5CC(OC6OC(CO)C(OC7OC(C)C(O)C(O)C7O)C(O)C6OC6OC(CO)C(O)C(O)C6O)CCC5(C)C4CCC3(C)C2C1C)COC1OC(CO)C(O)C(O)C1O (stereo not shown) [Shatavarin I] | 0.34 | 21.4 | –
dehydroshatavarin I | 0.45 | – | % increase of pER-α (from vehicle control) ([5]; markers, Table 3): 60.71%
